The numbers were not newly measured in patent US5681568A, “Device for delivery of substances and methods of use thereof” (Cambridge NeuroScience, Inc., priority 1994, dated 1997), which cites them from elsewhere.

One data set relates to nerve regeneration. The following applies: in vivo.
For data set [1] the following is noted: in vivo.
Data set [2] relates to hypoxic/ischemic brain injury. To be noted: rat.
The subject of data set [3] is experimental cerebral ischemia. The following applies: after experimental cerebral ischemia, rabbit.
The conditions of data set [4]: presence of heparin.

As for bFGF: Basic fibroblast growth factor, in the data set on nerve regeneration, the “effect on nerve regeneration” value is “therapeutic relevant effect on nerve regeneration”. As to `CSCC[C@@H]1NC(=O)[C@H](CC(C)C)NC(=O)[C@H](CCCNC(=N)N)NC(=O)[C@H](CO)NC(=O)[C@@H]2CSSC[C@@H]3NC(=O)[C@H](CO)NC(=O)CNC(=O)[C@H]([C@@H](C)O)NC(=O)[C@H](CSSC[C@H](N)C(=O)N[C@@H](CCCCN)C(=O)NCC(=O)N[C@@H](CCCCN)C(=O)NCC(=O)N[C@@H](C)C(=O)N[C@@H](CCCCN)C(=O)N2)NC(=O)[C@H](CSSC[C@@H](C(N)=O)NC(=O)[C@H](CCCCN)NC(=O)CNC(=O)[C@H](CO)NC(=O)[C@H](CCCNC(=N)N)NC3=O)NC(=O)[C@H](CC(=O)O)NC(=O)[C@H](Cc2ccc(O)cc2)NC1=O` [SNX111], in data set [1], the toxic side effects result is on record as “severe hypotension”. For “IGF-1: insulin-like growth factors (IGFs)”, the “effects in models of hypoxic/ischemic brain injury” value in data set [2] is recorded as “therapeutically relevant effects”. As to TGFβ1: Transforming growth factor β1, in data set [3], the “effect on infarct size” value was “reduce infarct size”. For the same compound, the “effects in models of hypoxic/ischemic brain injury” value in data set [2] is “therapeutically relevant effects”. For the compound “acidic FGF: member of the fibroblast growth factor (FGF) family known to associate with heparin”, the “effect of heparin on the factor's activity” value in data set [4] is on record as “can potentiate the factor's activity”.
